Data: patent publication US9409917B2, “Heterocyclic amide derivatives as P2X7 receptor antagonists” (ACTELION PHARMACEUTICALS LTD., priority 2012, dated 2016)

Molecular target: human recombinant P2X7 receptor (Homo sapiens (Human), UniProt Q99572)
Test: YO-PRO assay: P2X7 receptor antagonistic activity (ATP-induced YO-PRO-1 uptake, FLIPR)
Conditions: not given

Sequence of human recombinant P2X7 receptor (Q99572 whole entry): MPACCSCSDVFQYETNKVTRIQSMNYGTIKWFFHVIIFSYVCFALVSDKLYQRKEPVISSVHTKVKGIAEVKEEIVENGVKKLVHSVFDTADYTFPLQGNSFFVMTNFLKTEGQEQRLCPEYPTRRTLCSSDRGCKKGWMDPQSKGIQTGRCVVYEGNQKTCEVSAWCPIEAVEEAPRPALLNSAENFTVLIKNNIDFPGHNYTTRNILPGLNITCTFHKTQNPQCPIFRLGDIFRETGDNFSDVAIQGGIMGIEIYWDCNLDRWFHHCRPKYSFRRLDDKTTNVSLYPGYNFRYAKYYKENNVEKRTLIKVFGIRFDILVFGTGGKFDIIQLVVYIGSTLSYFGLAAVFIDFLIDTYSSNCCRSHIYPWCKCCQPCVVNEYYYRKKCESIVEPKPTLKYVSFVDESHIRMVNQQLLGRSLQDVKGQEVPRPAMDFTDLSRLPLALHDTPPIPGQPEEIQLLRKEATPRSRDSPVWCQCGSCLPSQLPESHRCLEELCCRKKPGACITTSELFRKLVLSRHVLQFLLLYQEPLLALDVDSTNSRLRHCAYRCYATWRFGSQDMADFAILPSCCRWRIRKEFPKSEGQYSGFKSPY

| SMILES | IC50 |
| --- | --- |
| O=C(NCc1ccc(Cl)cc1Cl)C1COc2ncccc21 (racemic) [Example 5, rac-2,3-Dihydro-furo[2,3-b]pyridine-3-carboxylic acid 2,4-dichloro-benzylamide] | 59.2 nM |
| O=C(NCC1(O)CCCCC1)C1CCOc2ncccc21 (racemic) [Example 10, rac-3,4-Dihydro-2H-pyrano[2,3-b]pyridine-4-carboxylic acid (1-hydroxy-cyclohexylmethyl)-amide] | 3170 nM |
| Cc1cc(Cl)cc(Cl)c1CNC(=O)C1(F)COc2ncccc21 (racemic) [Example 11, rac-3-Fluoro-2,3-dihydro-furo[2,3-b]pyridine-3-carboxylic acid 2,4-dichloro-6-methyl-benzylamide] | 4.8 nM |
| Cc1cc(Cl)cc(Cl)c1CNC(=O)C1(F)CCOc2ncccc21 (racemic) [Example 12, rac-4-Fluoro-3,4-dihydro-2H-pyrano[2,3-b]pyridine-4-carboxylic acid 2,4-dichloro-6-methyl-benzylamide] | 3.1 nM |
| O=C(NCc1c(F)cc(Cl)cc1Cl)C1COc2ncccc21 (racemic) [Example 15, rac-2,3-Dihydro-furo[2,3-b]pyridine-3-carboxylic acid 2,4-dichloro-6-fluoro-benzylamide] | 66.8 nM |
| O=C(NCc1cccc(C(F)(F)F)c1Cl)C1COc2ncccc21 (racemic) [Example 16, rac-2,3-Dihydro-furo[2,3-b]pyridine-3-carboxylic acid 2-chloro-3-trifluoromethyl-benzylamide] | 12.6 nM |
| O=C(NCc1cccc(Cl)c1Cl)C1(F)COc2ncccc21 (racemic) [Example 20, rac-3-Fluoro-2,3-dihydro-furo[2,3-b]pyridine-3-carboxylic acid 2,3-dichloro-benzylamide] | 67.9 nM |
| O=C(NCc1c(Cl)cc(Cl)cc1C1CC1)C1COc2ncccc21 (racemic) [Example 21, rac-2,3-Dihydro-furo[2,3-b]pyridine-3-carboxylic acid 2,4-dichloro-6-cyclopropyl-benzylamide] | 12.9 nM |
| CCc1cc(Cl)cc(Cl)c1CNC(=O)C1COc2ncccc21 (racemic) [Example 22, rac-2,3-Dihydro-furo[2,3-b]pyridine-3-carboxylic acid 2,4-dichloro-6-ethyl-benzylamide] | 1.5 nM |
| C=Cc1cc(Cl)cc(Cl)c1CNC(=O)C1COc2ncccc21 (racemic) [Example 23, rac-2,3-Dihydro-furo[2,3-b]pyridine-3-carboxylic acid 2,4-dichloro-6-vinyl-benzylamide] | 12.2 nM |
| COc1cc(Cl)cc(Cl)c1CNC(=O)C1COc2ncccc21 (racemic) [Example 26, rac-2,3-Dihydro-furo[2,3-b]pyridine-3-carboxylic acid 2,4-dichloro-6-methoxy-benzylamide] | 25.6 nM |
| Cc1c(Cl)cccc1CNC(=O)C1CCOc2ncccc21 (racemic) [Example 31, rac-3,4-Dihydro-2H-pyrano[2,3-b]pyridine-4-carboxylic acid 3-chloro-2-methyl-benzylamide] | 16 nM |
| O=C(NCc1ccc(F)cc1Cl)C1CCOc2ncccc21 (racemic) [Example 32, rac-3,4-Dihydro-2H-pyrano[2,3-b]pyridine-4-carboxylic acid 2-chloro-4-fluoro-benzylamide] | 25 nM |
| O=C(NCc1ccc(Oc2ccccc2)cc1)C1CCOc2ncccc21 (racemic) [Example 33, rac-3,4-Dihydro-2H-pyrano[2,3-b]pyridine-4-carboxylic acid 4-phenoxy-benzylamide] | 255 nM |
| O=C(NCc1cccc(Cl)c1Cl)C1CCOc2ncccc21 (racemic) [Example 34, rac-3,4-Dihydro-2H-pyrano[2,3-b]pyridine-4-carboxylic acid 2,3-dichloro-benzylamide] | 10.7 nM |
| O=C(NCc1ccc(Cl)cc1)C1CCOc2ncccc21 (racemic) [Example 35, rac-3,4-Dihydro-2H-pyrano[2,3-b]pyridine-4-carboxylic acid 4-chloro-benzylamide] | 475 nM |
| O=C(NCc1ccc(C(F)(F)F)cc1)C1CCOc2ncccc21 (racemic) [Example 36, rac-3,4-Dihydro-2H-pyrano[2,3-b]pyridine-4-carboxylic acid 4-trifluoromethyl-benzylamide] | 334 nM |
| O=C(NCCc1ccc(Cl)cc1Cl)C1CCOc2ncccc21 (racemic) [Example 38, rac-3,4-Dihydro-2H-pyrano[2,3-b]pyridine-4-carboxylic acid [2-(2,4-dichloro-phenyl)-ethyl]-amide] | 67.1 nM |
| O=C(NCc1ccc(Cl)cc1Cl)C1CCOc2ncccc21 (racemic) [Example 39, rac-3,4-Dihydro-2H-pyrano[2,3-b]pyridine-4-carboxylic acid 2,4-dichloro-benzylamide] | 11.8 nM |
| O=C(NCc1cccc(C(F)(F)F)c1Cl)C1CCOc2ncccc21 (racemic) [Example 40, rac-3,4-Dihydro-2H-pyrano[2,3-b]pyridine-4-carboxylic acid 2-chloro-3-trifluoromethyl-benzylamide] | 2.7 nM |
| Cc1c(Cl)cccc1CNC(=O)C1COc2ncccc21 (racemic) [Example 42, rac-2,3-Dihydro-furo[2,3-b]pyridine-3-carboxylic acid 3-chloro-2-methyl-benzylamide] | 46.9 nM |
| O=C(NCc1ccc(F)cc1Cl)C1COc2ncccc21 (racemic) [Example 43, rac-2,3-Dihydro-furo[2,3-b]pyridine-3-carboxylic acid 2-chloro-4-fluoro-benzylamide] | 86.8 nM |
| O=C(NCc1ccc(Oc2ccccc2)cc1)C1COc2ncccc21 (racemic) [Example 44, rac-2,3-Dihydro-furo[2,3-b]pyridine-3-carboxylic acid 4-phenoxy-benzylamide] | 1120 nM |
| O=C(NCc1cccc(Cl)c1Cl)C1COc2ncccc21 (racemic) [Example 45, rac-2,3-Dihydro-furo[2,3-b]pyridine-3-carboxylic acid 2,3-dichloro-benzylamide] | 37.2 nM |
| O=C(NCc1ccc(Cl)cc1)C1COc2ncccc21 (racemic) [Example 46, rac-2,3-Dihydro-furo[2,3-b]pyridine-3-carboxylic acid 4-chloro-benzylamide] | 795 nM |

Same assay, conditions: read-out: IC50 [nM], antagonistic activities with respect to the P2X7 receptor

| SMILES | IC50 |
| --- | --- |
| O=C(N[C@H](CO)C1CCCCC1)[C@H]1CCOc2ncccc21 (mixture of isomers) [Example 8, (S)-3,4-Dihydro-2H-pyrano[2,3-b]pyridine-4-carboxylic acid ((S)-1-cyclohexyl-2-hydroxy-ethyl)-amide and (R)-3,4-Dihydro-2H-pyrano[2,3-b]pyridine-4-carboxylic acid ((S)-1-cyclohexyl-2-hydroxy-ethyl)-amide] | 127 nM |
| Cc1cc(Cl)cc(Cl)c1CNC(=O)C1CCOc2c1ccc[n+]2[O-] (racemic) [Example 41, rac-8-Oxy-3,4-dihydro-2H-pyrano[2,3-b]pyridine-4-carboxylic acid 2,4-dichloro-6-methyl-benzylamide] | 16.3 nM |

Same assay, conditions: read-out: IC50 [nM], antagonistic activities with respect to the P2X7 receptor; HEK-293 cells expressing human recombinant P2X7 receptor; YO-PRO-1 fluorescence; ATP 250 μM, 90 minutes; highest concentration 10 μM

| SMILES | IC50 |
| --- | --- |
| O=C(N[C@H](CO)c1ccc(Cl)cc1Cl)[C@H]1CCOc2ncccc21 (mixture of isomers) [Example 9, (S)-3,4-Dihydro-2H-pyrano[2,3-b]pyridine-4-carboxylic acid [(S)-1-(2,4-dichloro-phenyl)-2-hydroxy-ethyl]-amide and (R)-3,4-Dihydro-2H-pyrano[2,3-b]pyridine-4-carboxylic acid [(S)-1-(2,4-dichloro-phenyl)-2-hydroxy-ethyl]-amide] | 70.8 nM |
